According to article PMC5845537 (Frontiers in Pharmacology, 2018):

Columns and labels:
GABAA receptor = experiment: Ex vivo autoradiography, GABAA receptor competition binding ([3H]muscimol vs GABA), medial prefrontal cortex; design: species or system rat
From the text: Rats used in ex vivo autoradiography (EVA) experiments were randomly assigned to one of four experimental groups characterized by either subchronic saline or PCP (as described above) along with either vehicle or vortioxetine-infused food (1.8 g vortioxetine/kg food weight, as described in the attentional set shifting task). On day 8 of PCP withdrawal, rats were anesthetized using CO2 and killed by decapitation. Brains were quickly and gently removed from the skull, flash frozen on powdered dry ice, and stored at -20°C until sectioning. […] After the tissue mounted on the microscope slides had dried thoroughly (in order to reduce damage from freezing), slides were packed into slide boxes with desiccator pellets, and stored at -20°C for use in EVA saturation binding and competition experiments.
Each of the EVA procedures used in this study are variations on a similar theme. On the day of an experiment, slide-boxes were defrosted under a constant stream of air at room temperature until the boxes were dry and equilibrated with the environment in terms of temperature. […] Prior to any binding experiments, slides were preincubated in the appropriate preincubation buffer and dried at room temperature. Subsequently, tissue was incubated in an assay buffer containing a radioligand appropriate for the receptor of interest, then rinsed in assay buffer, and dried overnight in a vacuum desiccator. […] Finally, slides were opposed to a tritium-sensitive phosphor screen (Fuji imaging plate, GE Healthcare, Pittsburgh, PA, United States) for 5 days before being read in a phosphorimager (Typhoon FLA7000, GE Healthcare).
Ki values for competition experiments were calculated separately for each animal, then aggregated to estimate sample averages and error. Ki values were calculated via non-linear regression, assuming a one-site competition binding, using GraphPad Prism version 6 for Windows (GraphPad software, La Jolla, CA, United States). pKi values were then calculated via the following formula: pKi = -Log10(Ki).

Long-Evans rats = experiment: Attentional set-shifting task (AST) in subchronic PCP-treated rats; assay type: in vivo, rat
Protocol: (§1) Subchronic PCP treatment: The subPCP administration regimen used in rats was conducted as described in ([Goetghebeur and Dias, 2009]), which is a reliable method for inducing deficits in our hands. Rats in the subPCP experiments received injections of 5 mg/mL PCP or vehicle (saline) s.c. at a 1 mL/kg injection volume twice per day for 7 days. […] The mouse subPCP regimen was conducted as described in [Pedersen et al. (2014)]. Briefly, mice received vehicle or PCP (1.3 mg/mL concentration, 10 mL/kg injection volume) s.c once per day for 14 days followed by a 7-day washout prior to experimentation.
Each test used male Long-Evans rats (Charles River, United States) aged 5–6 weeks when arriving at the research facility.
The attentional set-shifting test (AST) methods used here were adapted from [Goetghebeur and Dias (2009)]. The apparatus used for the AST test was a 44 cm × 64 cm × 30 cm black non-transparent Perspex test box, divided into 3 equal-sized areas (a starting area separated from a choice area subdivided in two). In the choice area, two 11 cm diameter terracotta pots were placed recessed into the box floor (with a 2 cm lip remaining above the floor) and separated by a divider. Odor (oils from The Body Shop®, United Kingdom) and media cues (not previously presented to the rats) were added to the pots.
Beginning on day 3 after the cessation of PCP administration, rats were subjected to a habituation period and trained to dig for a diet reward (half a Honey Loop cereal, Nestlé®) in terracotta pots filled with sawdust. On day 7 of PCP washout, rats were subjected to a single training session in which they were required to discriminate between two pots in order to find the reward. These discriminations were either based on differences in the digging media or the pot’s odor. On day 8 rats were presented with a series of increasingly difficult discriminations: a simple discrimination (SD), a compound discrimination (CD), two intra-dimensional shifts (ID1, ID2), an intra-dimensional shift reversal (ID2R), an extra-dimensional shift (ED) and an extra-dimensional shift reversal (EDR; see Table 1). Rats were required to meet a training criterion before moving on to a new discrimination type (for specifics, see Statistical Analysis, below).
The first trial of each discrimination stage was a discovery trial in which rats were allowed to dig in both pots, and to self-correct if digging in the wrong pot. Rats were only given one discovery trial. The discovery trial was included in the trials to criterion if the rat dug first in the correct pot, but not if the rat self-corrected an incorrect initial dig.
In the acute vortioxetine study, prior to the start of behavioral experiments on Day 8 of washout from PCP treatment, animals were randomly administered either 20% CD (Veh), […], or 64 mg/kg modafinil 30 min p.o. as described above (included as a positive control). Thus, the treatment groups in the acute vortioxetine study were as follows: Veh/Veh, PCP/Veh, PCP/1 mg/kg vortioxetine, PCP/3 mg/kg vortioxetine, PCP/10 mg/kg vortioxetine, or PCP/64 mg/kg modafinil.
Food dosing lasted from the first day of sub-chronic PCP administration and until the last day of the washout period (total of 14 days). After the end of the washout period where behavioral testing started, rats were fed with the same conditioned diet, however, under food restriction (∼11 g of diet per day per rat). In addition, some PCP-treated animals were fed vehicle food, but received acute injections of either 10 mg/kg vortioxetine, or 64 mg/kg modafinil, as described above. The treatment groups for the subchronic vortioxetine administration study were as follows: Veh/Veh, PCP/Veh, PCP/0.22 g/kg vortioxetine food, PCP/1.8 g/kg vortioxetine food, PCP/10 mg/kg vortioxetine 1 h s.c., or PCP/64 mg/kg 30 min p.o.
A third experiment was conducted to examine the effects of acute SERT inhibition or 5-HT3 receptor antagonism on subPCP-induced AST impairments. […]

Sprague-Dawley rats = experiment: Rat object recognition (OR) task after subchronic PCP; assay type: in vivo; settings: p < 0.05
Protocol: as §1
The behavioral procedures for the rat OR task were conducted as described in [du Jardin et al. (2014)]. […] OR task sessions were recorded by a digital camera situated above the open field. Exploration time for each object was recorded with a stopwatch from the videos. […]
The primary dependent measure for the OR and object placement tasks was a novel object or novel placement preference score, which were calculated from raw object investigation times using the following equation: Preference Score = ITN/(ITN + ITF)^∗100, where ITN represents the investigation time for the novel object or placement, and ITF represents the investigation for the familiar object or placement. Total exploration times from the information and test trials were analyzed for OP and OR experiments. […]

[1] = subchronic vortioxetine study, subPCP vs Veh/Veh, p < 0.001
[2] = subchronic high-dose 1.8 g vortioxetine/kg food weight p.o., p < 0.001
[3] = subchronic low-dose 0.18 g vortioxetine/kg food weight p.o., p < 0.001
[4] = subchronic vortioxetine study, acute 10 mg/kg 1 h s.c., p < 0.001

Cl.c1ccc(C2(N3CCCCC3)CCCCC2)cc1 [PCP, 1-(1-phenylcyclohexyl)-piperidine hydrochloride]
effect of treatment on GABA pKi at the GABAA receptor (GABAA receptor; subPCP treatment on its own): did not significantly alter | trials to reach criterion, EDR discrimination (Long-Evans rats; acute vortioxetine study, subPCP/vehicle vs vehicle/vehicle): significant increases | trials to reach criterion, ED discrimination (Long-Evans rats; acute vortioxetine study, subPCP/vehicle vs vehicle/vehicle, PCP 5 mg/kg s.c. twice per day 7 days, 7-day washout, p < 0.01): significant increase | trials to reach criterion, EDR discrimination (Long-Evans rats; ondansetron/escitalopram study, subPCP vs vehicle/vehicle): failed to induce a significant increase | trials to reach criterion, ED discrimination (Long-Evans rats; ondansetron/escitalopram study, subPCP vs vehicle/vehicle, p < 0.001): significant increase | trials to reach criterion, ED discrimination (Long-Evans rats; [1]): significant increase | trials to reach criterion, EDR discrimination (Long-Evans rats; [1]): significant increase | OR performance (novel object preference score) (Sprague-Dawley rats; subPCP alone vs vehicle-treated controls): significant impairments

Cc1ccc(Sc2ccccc2N2CCNCC2)c(C)c1 [vortioxetine]
GABA pKi at the GABAA receptor, PCP/vortioxetine vs vehicle/vortioxetine group (GABAA receptor; subchronic vortioxetine combined with subPCP, p < 0.01): significantly lower | increase in the affinity of GABA for the GABAA receptor (GABAA receptor; vehicle/vortioxetine vs saline/vehicle group, subchronic 1.8 g vortioxetine/kg food, p < 0.01): approximately 2.5 fold | reversal of subPCP-induced impairment, ED discrimination (trials to criterion) (Long-Evans rats; acute vortioxetine study, 1 mg/kg 1 h s.c., vs PCP/Veh): significantly reversed | reversal of subPCP-induced impairment, ED discrimination (trials to criterion) (Long-Evans rats; acute vortioxetine study, 3 mg/kg 1 h s.c., vs PCP/Veh): significantly reversed | reversal of subPCP-induced impairment, ED discrimination (trials to criterion) (Long-Evans rats; acute vortioxetine study, 10 mg/kg 1 h s.c., vs PCP/Veh): significantly reversed | reversal of subPCP-induced impairment, EDR discrimination (trials to criterion) (Long-Evans rats; acute vortioxetine study, acute 1, 3, 10 mg/kg 1 h s.c., vs PCP/Veh): neither acute vortioxetine nor modafinil significantly reversed | attenuation of subPCP-induced impairment, ED discrimination (Long-Evans rats; [2]): significantly attenuated | attenuation of subPCP-induced impairment, EDR discrimination (Long-Evans rats; [2]): significantly attenuated | attenuation of subPCP-induced impairment, ED discrimination (Long-Evans rats; [3]): significantly attenuated | attenuation of subPCP-induced impairment, EDR discrimination (Long-Evans rats; [3]): significantly attenuated | normalization of AST performance in subPCP-treated rats, ED (Long-Evans rats; [4]): significant normalization | normalization of AST performance in subPCP-treated rats, EDR (Long-Evans rats; [4]): significant normalization | attenuation of subPCP-induced OR impairment (preference score) (Sprague-Dawley rats; subPCP-treated rats, acute 10 mg/kg 1 h s.c.): significantly attenuated
